Test results from a melting point compilation (Tetko et al.; mined from patent text by program, amines drawn as free bases though some values may be those of a salt).

SMILES | melting point [°C]
CCCCCCCCc1ccc(C(O)CC(CO)(CO)NC(C)=O)cc1 (stereo unspecified) | 118 to 119
CN(C)Cc1c[nH]c2ncccc12 | 161 to 162
CCCCCCCCc1ccc(-c2ncc(O)cn2)cc1 | 147 to 149
CSc1ncnc2c(N3CCSCC3)nc(N3CCNCC3)nc12 | 177 to 179
CCOC(=O)c1cc(CC)sc1Nc1cc(F)cc(F)c1[N+](=O)[O-] | 74 to 75
N[C@@H](Cc1ccccc1)C(=O)N(C(=O)Cc1cc(F)cc(F)c1)[C@@H]1C(=O)Nc2ccccc2S[C@@H]1c1ccccc1 | 115 to 120
NC(=O)C1CN(Cc2ccccc2)CCN1 (stereo unspecified) | 168
CSc1ccc(C(=O)O)cc1OC1CCCC1 | 158 to 160
CC12CC(C)(C1)C(=O)N(C(C)(C)C)C2=O | 65 to 65.5
COC(=O)C1CCC2C3CCC4CC(O)CCC4(C)C3C(N)CC12C (stereo unspecified) | 113 to 116
N#Cc1nc(Cl)sc1Cl | 56.5 to 57
CCOC(=O)c1ncn(-c2nncs2)c1S(=O)(=O)NC(=O)Nc1nc(OC)cc(OC)n1 | 169 to 171
Cc1csc2ccc3c(c4c(n3CCCN(C)C)CCNC4)c12 | 92
Cc1ccc2c(C(=O)NC(C)C)c(NC(=O)c3cc(C(F)(F)F)nn3-c3ncccc3Cl)c(C)cc2n1 | > 240
CCCCn1c(=O)c2ncn(C)c2c2cccnc21 | 198 to 202
COc1cc(Cl)ccc1CBr | 42 to 45
CCCCCCCCCC(O)CCc1ccc(O)c(OC)c1 (stereo unspecified) | 66 to 68
CCN(CC)C(=O)C(C)(C)C(=O)O | 110 to 112
C=C(C)C(=O)OC1=CC(C(=O)O)C(O)(C(C)=O)C=C1 (stereo unspecified) | 150
Cc1ccc2c(c1)C(=O)N(C)Cc1c(C#N)ncn1-2 | 252
CCCCCCCN(CCCCCSc1nc2c([nH]1)CCCC2)C(=O)Nc1ccc(F)cc1F | 98 to 100
CCCCCCCCCCOc1ccc(OCCCC#CCOC)cc1 | 33 to 34
N#Cc1ccc(N2C(=O)[C@@H]3[C@H](O)CCN3C2=S)c2ccccc12 | 215 to 216

SMILES | melting point [°C]
CC(=O)OCCn1c([N+](=O)[O-])cnc1C | 143 to 145
Cc1cc(F)ccc1Nc1nc(N(C)c2ccccc2)c2cc(OCCCN3CCOCC3)ccc2n1 | 119 to 120
COc1ccc(C=CC(=O)O)cc1-c1cc2c(cc1OCCCCCCCC(N)=O)C(C)(C)CCC2(C)C | 132 to 134
O=c1[nH]c2cc(Cl)ccc2n1C1CCN(CCCC(c2ccc(F)cc2)c2ccc(F)cc2)CC1 | 186
CCOC(=O)C(=NO)c1ccc(OC)cc1 | 81 to 82
O=[N+]([O-])C=C1C[N+]([O-])=C(c2ccccc2F)c2cc([N+](=O)[O-])ccc2N1 | 216 to 220
CC(=O)Nc1cc2c(cc1[N+](=O)[O-])[C@@H](N1CCCC1=O)[C@H](O)C(C)(C)O2 (relative stereo) | 266 to 268
OCC(O)(Cn1cncn1)c1ccc(F)cc1F (stereo unspecified) | 99 to 100
N#CC1OC(COC(=O)c2ccccc2)C(OC(=O)c2ccccc2)C1OC(=O)c1ccccc1 (stereo unspecified) | 77 to 78
ICc1ccc2c(c1)OCO2 | 51
O=C(NCCOCCO)C12CC3CC(CC(C3)C1)C2 | 72 to 73
CC(C)c1cc(C(=O)O)sc1C(C)C | 149 to 151
N[C@@H](CCC(=O)NCCS(=O)(=O)O)C(=O)O | 202 to 204
O=C(O)[C@@H]1CSC(c2ccccc2O)N1C(=O)CCBr (stereo partly specified) | 109 to 115
CCCNC(=O)c1ccccc1N=C(NC(=O)c1ccccc1)SC | 86 to 89
COc1ccc(CCNCC(O)C(=O)O)cc1OC (stereo unspecified) | 188
CNC(=O)CC1CCN(Cc2cnc3c(C)c(NC(=O)c4ccc(-c5ccc(F)cc5)cc4)ccc3c2)CC1 | 229 to 231
COc1ccc(C2(c3ccc(OC)cc3)CCN(CC[C@H]3CN(C)[C@@H]4Cc5c[nH]c6cccc(c56)[C@@]4(OC)C3)CC2)cc1 | 129 to 136
Cc1nc(N)sc1S(=O)(=O)NC(C)(CO)CO | 170
COc1ccc(S(=O)(=O)[C@H](CCCCc2ccccc2)[C@@H](CCS(=O)(=O)c2ccccc2)C(=O)NO)cc1OC | 78 to 81
O=S1(=O)CCC(=NO)C1=NO | 181
Cc1c(CCN(C)C)c2cc(S(=O)(=O)c3ccccc3)ccc2n1C | 170 to 172
CCOC(=O)CCCC(CNC(=O)OC(C)(C)C)c1ccccc1 (stereo unspecified) | 82 to 84

Second part, the molecule after the results:

melting point [°C] | SMILES
113 to 115 | COC(=O)Nc1cccc(C(=O)OC)c1NCc1ccc(-c2ccccc2C#N)cc1
162 | COc1ccc(N(C)C(=O)CN(C(=O)CN2C(=O)c3ccccc3C2=O)c2ccccc2)cc1
138 to 139 | CC(C)Cn1c(CNC(=O)OC(C)(C)C)c(-c2ccccc2F)c2cc(OCc3ccccc3)ccc2c1=O
126 to 129 | COc1ccc(/C=C/S(=O)(=O)N(C)c2ccccc2)cc1
119 to 121 | O=C(Nc1cc2ncc(CN3CCCC3)cc2cc1F)c1ccc(Br)cc1
81 to 85 | CC(CCNc1cccc(-c2ccnc3c(C(=O)c4cccs4)cnn23)c1)CC(C)(C)C (stereo unspecified)
129 | CCOC(=O)c1ccc(CN2CCN(c3cc(-c4ccccc4)c4ccc(=O)ccn34)CC2)cc1
126 to 127 | Clc1nccc(-c2ccc(Cl)c(Cl)c2)n1
179 to 181 | COc1cccc(CNS(=O)(=O)c2ccc(C(CC3CCCC3)C(=O)Nc3nc4ccc(OC)nc4s3)cc2)c1 (stereo unspecified)
297 to 298 | CCCCc1ncc(/C=C2\C(=O)NC(=O)N2Cc2ccccc2)n1Cc1ccc(C(=O)O)cc1
188 to 190 | COC(=O)C1=C(C)NC(C)=C(C(=O)OCCN2C(=O)c3ccccc3C2=O)C1c1cccc(C)c1 (stereo unspecified)
108 to 109 | O=C1NCC(COc2ccccc2)O1 (stereo unspecified)
148 to 149 | COc1ccc(-c2[nH]cnc2-c2cc(OC)c([N+](=O)[O-])c(OC)c2)cc1O
130 to 132 | CCCCOC(=O)c1cc(OCc2ccccc2)c2c(Cl)cc(Cl)cc2n1
200 to 202 | Nc1ccsc1C(=O)NCC1CCN(C[C@H]2COc3ccc(Cl)cc3O2)CC1
191 to 192 | O=C1c2c(O)cccc2C(O)(c2cccs2)c2cccc(O)c21
119 to 120 | Cc1cccc(C(NCC(=O)Nc2c(C(C)C)cccc2C(C)C)c2ccccc2)c1 (stereo unspecified)
165 to 166 | O=C(Nc1ccc(-n2nc(-c3ccoc3)cc2Cl)cc1)c1ccncc1F
61.5 to 62.5 | COC(=O)C(OCc1ccc(-c2ccc(Cl)cc2)cc1)(C(F)(F)F)C(F)(F)F
121 | CCC(CC)(CCc1ccc(Cl)cc1)NC(=O)n1nc(N(C)C)n(N=C(C)CC(C)C)c1=O
129 to 132 | COc1ccc2c(c1OC)CCN(Cc1ccccc1)Cc1cc3c(cc1C=C2)OCO3
130 to 131 | Cn1cc(-c2cccc(C(F)(F)F)c2)c(=O)n1-c1cccc(Cl)c1
101 to 102 | CCC1CC2C3CCc4cc(OC)ccc4C3CCC2(CC)C1=O (stereo unspecified)
162 to 164 | COc1cc2c(cc1OC)CN(CCc1ccc(-c3ccccc3)cc1)CC2
140 to 143 | COC(=O)c1cc(-c2ccc3cc4c(cc3c2)C(C)(C)CCC4(C)C)c[nH]1
124 to 126 | Oc1cccc([C@H]2CCCC[C@H]2N2CCCC2)c1 (relative stereo)
81.5 to 83 | COc1ccc(S)c(Cl)c1Cl
263 to 265 | COCCOc1ccc(N=Nc2c(C#N)[nH]n(-c3ccccc3)c2=O)cc1S(=O)(=O)O

melting point [°C] | SMILES
156 | OC1CC(c2ccc(Oc3ccc(-c4ccc(Cl)cc4)cc3)cc2)Cc2ccccc21 (stereo unspecified)
197 to 198 | CCOC(=O)C(O)c1oc(-n2ccnc2C)nc1-c1ccc(Cl)cc1 (stereo unspecified)
144 to 146 | CCC(CCOC)c1ccc(Cl)c2nc3n(c12)CCCN3c1ccc(Cl)cc1Cl (stereo unspecified)
157 to 158 | Cn1c(CC(=O)O)cc2c1C(=O)c1sccc1CC2
143 to 145 | O=C1CCC2(CC1)OC(c1ccccc1)c1ccccc12 (stereo unspecified)
138 | Cc1ncc(C(=O)NCc2cc(C(F)(F)F)cc(C(F)(F)F)c2)c(-c2ccccc2Br)n1
145 to 147 | CCCc1c(OCCCSc2ccc(C(=O)O)cn2)ccc(C(C)=O)c1O
209 to 211 | Cc1cc(Cc2cnc(Cl)nc2Cl)c2cccnc2c1N
142 to 144 | CCn1c(C(C)NS(=O)(=O)c2ccc(Cl)c(Cl)c2)cnc1Oc1ccc(C)cc1 (stereo unspecified)
160 to 165 | O=C1c2cc(Cl)ccc2Cc2cccc(Cl)c21
89 | O=c1c2ccc(Cl)cc2sn1CCCCl
130 to 131 | CC(=O)c1ccc(CCNS(=O)(=O)c2ccc(Br)cc2)cc1
225 | Nc1cc(=O)n(Cc2c(Cl)cccc2Cl)[nH]1
97 to 98 | COc1ccc(C(=O)C2CCCCC2)c(Cl)c1Cl
> 250 | Cc1ccc(-c2ccc(Cl)cc2)cc1-c1c(O)cnn(C)c1=O
234 to 240 | O=C(O)C1=Cc2cc(C(=O)c3ccc(O)cc3)ccc2OC1C(F)(F)F (stereo unspecified)
229 to 230 | O=C(O)C1=C(c2ccc3c(c2)OCO3)c2ccccc2S(=O)(=O)N1Cc1ccc2c(c1)OCO2
141 | CCC1CC(=Cc2ccc(N(CC)CC)cc2)C(=O)C(=Cc2ccc(N(CC)CC)cc2)C1 (stereo unspecified)
> 250 | CC(C)Oc1cccc2c1C(=NNc1ccc(S(N)(=O)=O)cc1)C(=O)N2
130 to 131 | O=[N+]([O-])c1ccc(Cl)c(C2SCCS2)c1
99 to 100 | CC(=O)c1ccc(OCCC2CCN(c3cc(Cl)nnc3Cl)CC2)cc1
> 300 | CCOC(=O)C1(O)COc2cc3ccc(=O)[nH]c3cc2C1=O (stereo unspecified)
169 to 172 | Cc1cc(C=O)ccc1C(=O)Nc1ncc(Cl)cn1
217 to 218 | CCOC(=O)c1cc(=O)c2cc(O)ccc2s1
190 to 191 | Fc1ccc(Nc2nc(NC3CCOCC3)nc(OCC(F)(F)F)n2)cc1Cl
225 | O=C(CCCl)Nc1ccc(C(=O)O)cc1
225 to 227 | CN(C)CCNc1ccc2c3c(nn2CCNC(=O)OC(C)(C)C)-c2cnccc2C(=O)c13
